This is an account of results in US20120029190A1, “COMPOUNDS FOR TREATING DISORDERS MEDIATED BY METABOTROPIC GLUTAMATE RECEPTOR 5, AND METHODS OF USE THEREOF” (priority 2009, published 2012).

Like-named read-outs stand apart in the source and are kept apart here.

For orientation: IC50 means the concentration that inhibits the measured activity by half.

The assay concerns the target T1, human recombinant mGluR5 receptor (Homo sapiens, UniProt P41594).
T1 construct: expressed in transfected cells; expression induced with doxycycline
The assay can be described thus: mGluR5 in vitro functional assay (aequorin cell line, inhibition of glutamate EC80 response). Particulars: aequorin cell line expressing human mGluR5, reference agonist glutamate at EC80, obtained in duplicate, read-out: IC50. The format is cell-based. How it is done: B. mGluR5 In Vitro Functional Assay
The functional assay utilized an aequorin cell line expressing human recombinant mGluR5 receptor, an inducible cell line that expresses the human receptor under the control of a promoter induced by doxycycline.
mGluR5 cells in mid-log phase, grown 18 hours prior to the test in antibiotic-free media supplemented with doxycycline (600 ng/mL), were detached by gentle flushing with PBS-EDTA ([…]). The cells were recovered by centrifugation and resuspended in assay buffer (HBSS, […], 3 ug/mL glutamate-pyruvate transaminase, […] MEM sodium pyruvate, 0.1% BSA protease-free). Cells were incubated at room temperature for at least 4 hours with Coelenterazine h (Molecular Probes). The cell suspension (60 uL) containing the test compound was mixed with a solution of reference agonist (30 uL) at its EC80, following an incubation of 3 min. after the first injection. The resulting emission of light was recorded using a Hamamatsu Functional Drug Screening System 6000 (FDSS 6000). To standardize the emission of recorded light (determination of the “100% signal’) across plates and across different experiments, some of the wells contained 100 uM digitonin or a saturating concentration (20 mM) of ATP. Plates also contained the reference agonist (glutamate) at a concentration equivalent to the EC80 obtained during assay validation. Percentages of inhibition were calculated on the basis of the activation induced by the reference agonist at a concentration equal to the EC80. Dose-response data were analyzed with XLFit (IDBS) software using nonlinear regression applied to a sigmoidal dose-response model.

T1 sequence (P41594 21-1212): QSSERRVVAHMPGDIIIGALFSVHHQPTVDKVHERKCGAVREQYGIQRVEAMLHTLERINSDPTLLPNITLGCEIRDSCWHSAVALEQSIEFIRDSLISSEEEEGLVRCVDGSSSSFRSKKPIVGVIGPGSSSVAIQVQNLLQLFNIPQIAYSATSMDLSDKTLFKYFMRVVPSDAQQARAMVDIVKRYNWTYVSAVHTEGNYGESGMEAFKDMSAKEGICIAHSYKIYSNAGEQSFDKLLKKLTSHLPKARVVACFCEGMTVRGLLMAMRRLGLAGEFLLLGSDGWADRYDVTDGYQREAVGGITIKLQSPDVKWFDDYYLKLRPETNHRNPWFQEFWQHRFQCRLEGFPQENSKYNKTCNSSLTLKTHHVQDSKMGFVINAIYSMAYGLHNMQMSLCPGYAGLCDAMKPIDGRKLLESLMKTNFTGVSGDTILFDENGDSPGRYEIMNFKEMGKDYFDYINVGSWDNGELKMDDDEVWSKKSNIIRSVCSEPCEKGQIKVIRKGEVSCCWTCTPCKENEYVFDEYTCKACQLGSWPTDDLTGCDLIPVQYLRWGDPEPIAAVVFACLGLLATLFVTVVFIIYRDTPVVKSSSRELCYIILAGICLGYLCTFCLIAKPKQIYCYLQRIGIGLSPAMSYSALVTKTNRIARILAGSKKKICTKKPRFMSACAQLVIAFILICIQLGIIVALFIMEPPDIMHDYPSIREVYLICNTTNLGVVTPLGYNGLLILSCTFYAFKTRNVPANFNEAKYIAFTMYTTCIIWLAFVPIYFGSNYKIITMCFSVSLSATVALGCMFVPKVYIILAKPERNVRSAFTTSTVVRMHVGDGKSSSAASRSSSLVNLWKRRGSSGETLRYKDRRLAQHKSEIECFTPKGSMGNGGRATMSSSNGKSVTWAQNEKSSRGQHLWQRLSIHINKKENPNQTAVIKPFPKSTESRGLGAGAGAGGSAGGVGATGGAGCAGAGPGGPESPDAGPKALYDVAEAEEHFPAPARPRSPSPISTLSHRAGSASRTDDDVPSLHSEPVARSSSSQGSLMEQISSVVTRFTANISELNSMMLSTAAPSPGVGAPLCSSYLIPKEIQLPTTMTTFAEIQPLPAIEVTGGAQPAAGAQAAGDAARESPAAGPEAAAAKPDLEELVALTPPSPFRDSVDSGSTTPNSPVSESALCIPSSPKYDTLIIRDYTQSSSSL

For `Cc1ccc(-c2nc3c(o2)CN(c2cccc(C#N)c2)CC3)nc1` [Compound 74, 3-(2-(5-Methylpyridin-2-yl)-6,7-dihydrooxazolo[5,4-c]pyridin-5(4H)-yl)benzonitrile], under “Table 1”, the IC50 is below 10 µM.
On the same count and under the same terms, to `N#Cc1cc(F)cc(N2CCc3nc(-c4ccccn4)[nH]c3C2)c1` [Compound 111, 3-Fluoro-5-(2-(pyridin-2-yl)-6,7-dihydro-3H-imidazo[4,5-c]pyridin-5(4H)-yl)benzonitrile] belongs above 10 µM.
The same measure, in the same setting: to `N#Cc1cccc(CN2CCc3oc(-c4ccccn4)nc3C2)c1` [Compound 34] belongs below 1 µM.
For the compound `c1ccc(-c2nc3c(o2)CCN(c2cncnc2)C3)nc1` [Compound 131, 2-(pyridin-2-yl)-5-(pyrimidin-5-yl)-4,5,6,7-tetrahydrooxazolo[4,5-c]pyridine], the IC50 (Table 2) was below 10 µM.
For `Fc1ccc(-c2nc3c(o2)CCN(c2ccccn2)C3)cc1` [Compound 48, 2-(4-Fluorophenyl)-5-(pyridin-2-yl)-4,5,6,7-tetrahydrooxazolo[4,5-c]pyridine], for the setting “Table 1”, the IC50 was below 10 µM.
As for `N#Cc1cccc(-c2nc3c(o2)CN(c2ncccc2C#N)CC3)c1` [Compound 66, 2-(2-(3-Cyanophenyl)-6,7-dihydrooxazolo[5,4-c]pyridin-5(4H)-yl)nicotinonitrile], where the note is “Table 1”, the IC50 is below 10 µM.
Consider `Clc1cccc(N2CCc3oc(-c4ccccn4)nc3C2)c1Cl` [Compound 170, 5-(2,3-Dichlorophenyl)-2-(pyridin-2-yl)-4,5,6,7-tetrahydrooxazolo[4,5-c]pyridine], for which, under “Table 2”, the IC50 was below 1 µM.
With `N#Cc1cc(Br)cc(N2CCc3nc(-c4ccccn4)oc3C2)c1` [Compound 10, 3-Bromo-5-(2-(pyridin-2-yl)-6,7-dihydrooxazolo[5,4-c]pyridin-5(4H)-yl)benzonitrile], where the note is “Table 1”, the IC50 is below 1 µM.
For `Clc1cccc(N2CCCc3oc(-c4ccncn4)nc3C2)c1` [Compound 137, 5-(3-chlorophenyl)-2-(pyrimidin-4-yl)-5,6,7,8-tetrahydro-4H-oxazolo[4,5-c]azepine], the IC50 (Table 2) is below 1 µM.
`N#Cc1cc(F)cc(-c2nc3c(o2)CCN(c2ccccn2)C3)c1` [Compound 164, 3-Fluoro-5-(5-(pyridin-2-yl)-4,5,6,7-tetrahydrooxazolo[4,5-c]pyridin-2-yl)benzonitrile]: the IC50 (Table 2) was below 10 µM.
Still for that read-out and setting: then `Cc1nc(-c2nc3c(o2)CCCN(c2ccccn2)C3)cs1` [Compound 207, 2-(2-Methylthiazol-4-yl)-5-(pyridin-2-yl)-5,6,7,8-tetrahydro-4H-oxazolo[4,5-c]azepine], with below 10 µM; and `N#Cc1cc(F)cc(N2CCc3oc(-c4ccncn4)nc3C2)c1` [Compound 118, 3-fluoro-5-(2-(pyrimidin-4-yl)-6,7-dihydrooxazolo[4,5-c]pyridin-5(4H)-yl)benzonitrile], with below 1 µM.
As for `N#Cc1cccc(N2CCc3nc(-c4ccccn4)oc3C2)c1` [Compound 1, 3-(2-(Pyridin-2-yl)-6,7-dihydrooxazolo[5,4-c]pyridin-5(4H)-yl)benzonitrile], for the setting “Table 1”, the IC50 is below 1 µM.
Regarding `Cc1nc(-c2nc3c(o2)CCN(c2ccccn2)C3)cs1` [Compound 161, 2-(2-Methylthiazol-4-yl)-5-(pyridin-2-yl)-4,5,6,7-tetrahydrooxazolo[4,5-c]pyridine], the IC50 (Table 2) was below 1 µM.
In the case of `N#Cc1cc(F)cc(CN2CCc3oc(-c4ccccn4)nc3C2)c1` [Compound 35, 3-Fluoro-5-((2-(pyridin-2-yl)-6,7-dihydrooxazolo-[4,5-c]pyridin-5(4H)-yl)methyl)benzonitrile], the IC50 (Table 1) was below 10 µM.
Same read-out and setting: to `c1ccc(-c2nc3c(o2)CN(c2cnccn2)CC3)cc1` [Compound 18, 2-Phenyl-5-(pyrazin-2-yl)-4,5,6,7-tetrahydrooxazolo-[5,4-c]pyridine] belongs below 10 µM.
For the compound `Fc1ccc(N2CCCc3oc(-c4ncccn4)nc3C2)cc1F` [Compound 200, 5-(3,4-Difluorophenyl)-2-(pyrimidin-2-yl)-5,6,7,8-tetrahydro-4H-oxazolo[4,5-c]azepine], the IC50 (Table 2) was above 10 µM.
On the same count and under the same terms, to `Cc1cccnc1-c1nc2c(o1)CCN(c1cc(F)cc(C#N)c1)C2` [Compound 121, 3-fluoro-5-(2-(3-methylpyridin-2-yl)-6,7-dihydrooxazolo[4,5-c]pyridin-5(4H)-yl)benzonitrile] belongs below 10 µM.
As for `N#Cc1ccnc(N2CCc3nc(-c4ccccn4)oc3C2)c1` [Compound 7, 2-(2-(Pyridin-2-yl)-6,7-dihydrooxazolo[5,4-c]pyridin-5(4H)-yl)isonicotinonitrile], the IC50 (Table 1) was below 10 µM.
Regarding `N#Cc1cccc(N2CCn3cc(-c4ccccn4)nc3C2)c1` [Compound 110, 3-(2(Pyridin-2-yl)-5,6-dihydroimidazo[1,2-a]pyrazin-7(8H)-yl)benzonitrile], the IC50 (Table 1) was below 1 µM.
Take `Fc1ccc([C@H]2CCc3oc(-c4ccccn4)nc3C2)c(Cl)c1` (single isomer, unassigned) [Compound 225]: for the setting “Table 2”, the IC50 is below 1 µM.
Same read-out and setting: then `Cc1nc(-c2nc3c(o2)CCCN(c2cc(F)cc(C#N)c2)C3)cs1` [Compound 145, 3-fluoro-5-(2-(2-methylthiazol-4-yl)-7,8-dihydro-4H-oxazolo[4,5-c]azepin-5(6H)-yl)benzonitrile], with below 1 µM; and `N#Cc1cc(F)cc(N2CCc3oc(Cc4ccccc4)nc3C2)c1` [Compound 155, 3-(2-Benzyl-6,7-dihydrooxazolo[4,5-c]pyridin-5(4H)-yl)-5-fluorobenzonitrile], with above 10 µM.
Same read-out and setting: then `Clc1ccccc1N1CCCc2oc(-c3ccccn3)nc2C1` [Compound 211, 5-(2-Chlorophenyl)-2-(pyridin-2-yl)-5,6,7,8-tetrahydro-4H-oxazolo[4,5-c]azepine], with below 1 µM.
Turning to `N#Cc1cc(C#N)cc(N2CCc3nc(-c4ccccn4)oc3C2)c1` [Compound 16, 5-(2-(Pyridin-2-yl)-6,7-dihydrooxazolo[5,4-c]pyridin-5(4H)-yl)isophthalonitrile], the IC50 (Table 1) was below 10 µM.
For `O=C(CN1CCc2nc(-c3ccccn3)oc2C1)c1ccc(F)cc1` [Compound 150, 1-(4-Fluorophenyl)-2-(2-(pyridin-2-yl)-6,7-dihydrooxazolo[5,4-c]pyridin-5(4H)-yl)ethanone], the IC50 (Table 2) is above 10 µM.
For `Fc1ccc(-c2nc3c(o2)CCN(c2cc(F)cc(Cl)c2)C3)nc1` [Compound 159, 5-(3-Chloro-5-fluorophenyl)-2-(5-fluoropyridin-2-yl)-4,5,6,7-tetrahydrooxazolo[4,5-c]pyridine], the IC50 (Table 2) is below 1 µM.
Same read-out and setting: then `N#Cc1cc(F)cc(N2CCCc3oc(-c4cnccn4)nc3C2)c1` [Compound 141, 3-fluoro-5-(2-(pyrazin-2-yl)-7,8-dihydro-4H-oxazolo[4,5-c]azepin-5(6H)-yl)benzonitrile], with below 1 µM; and `Fc1cccc(N2CCc3oc(-c4ccncn4)nc3C2)c1` [Compound 119, 5-(3-fluorophenyl)-2-(pyrimidin-4-yl)-4,5,6,7-tetrahydrooxazolo[4,5-c]pyridine], with below 10 µM.
Regarding `COc1cc(C#N)cc(N2CCCc3nc(-c4ccccn4)oc3C2)c1` [Compound 91, 3-Methoxy-5-(2-(pyridin-2-yl)-7,8-dihydro-4H-oxazolo[5,4-c]azepin-5(6H)-yl)benzonitrile], where the note is “Table 1”, the IC50 is below 1 µM.
With `CC(C)(c1ccccn1)c1nc2c(o1)CCN(c1cc(F)cc(C#N)c1)C2` [Compound 195, 3-Fluoro-5-(2-(2-(pyridin-2-yl)propan-2-yl)-6,7-dihydrooxazolo[4,5-c]pyridin-5(4H)-yl)benzonitrile], the IC50 (Table 2) was above 10 µM.
As to `c1ccc(N2CCc3oc(-c4ccccn4)nc3C2)cc1` [Compound 126, 5-phenyl-2-(pyridin-2-yl)-4,5,6,7-tetrahydrooxazolo[4,5-c]pyridine], the IC50 (Table 2) was below 1 µM.
As for `Fc1cc(F)cc(N2CCc3oc(-c4ccccn4)nc3C2)c1` [Compound 31, 5-(3,5-Difluorophenyl)-2-(pyridin-2-yl)-4,5,6,7-tetrahydrooxazolo[4,5-c]pyridine], the IC50 (Table 1) was below 1 µM.
As to `Cc1cccc(-c2nc3c(o2)CCN(c2ncccc2C#N)C3)c1` [Compound 61, 2-(2-m-Tolyl-6,7-dihydrooxazolo[4,5-c]pyridin-5(4H)-yl)nicotinonitrile], where the note is “Table 1”, the IC50 was below 1 µM.
Take `c1ccc(-c2nc3c(o2)CCN(c2ccccn2)C3)cc1` [Compound 38, 2-Phenyl-5-(pyridin-2-yl)-4,5,6,7-tetrahydrooxazolo-[4,5-c]pyridine]: the IC50 (Table 1) is below 10 µM.
On the same count and under the same terms, to `Clc1cccc(-c2nc3c(o2)CCN(c2cnccn2)C3)c1` [Compound 41, 2-(3-Chlorophenyl)-5-(pyrazin-2-yl)-4,5,6,7-tetrahydrooxazolo[4,5-c]pyridine] belongs below 1 µM; to `N#Cc1nccnc1N1CCc2oc(-c3cccc(Cl)c3)nc2C1` [Compound 53, 3-(2-(3-Chlorophenyl)-6,7-dihydrooxazolo[4,5-c]pyridin-5(4H)-yl)pyrazine-2-carbonitrile], below 1 µM.
On to `Clc1cccc(N2CCCc3oc(-c4cnccn4)nc3C2)c1` [Compound 140, 5-(3-chlorophenyl)-2-(pyrazin-2-yl)-5,6,7,8-tetrahydro-4H-oxazolo[4,5-c]azepine], for which the IC50 (Table 2) was below 10 µM.
